# In patent US9320759B2, “Methods and compositions for treating, reducing or preventing deterioration of the visual system of animals” (Nestec S.A, priority 2011, dated 2016):
# What was measured:
# [1] = tested on: TUNEL-positive cells in the ischemic boundary cortex; assay: TUNEL staining and cell death quantification after transient middle cerebral artery occlusion; assay type: in vivo, rat; details: OVX female rats, 4 weeks diet (E2 1 week), 1 hour MCA occlusion, 24 hours reperfusion
# Procedure: Young adult (2 to 3 months old) female Charles River rats were ovariectomized (OVX) and fed one of 5 compositions for 4 weeks or treated with estradiol (E2) as a positive control for one week. The animal groups and respective compositions were: At the end of the 4 weeks of feeding (or 1 week of E2 treatment), the animals were subjected to a transient (1 hour) middle cerebral artery occlusion followed by reperfusion for 24 hours to mimic one of the main causes of neuron loss. Then, the animals were euthanized for determination of brain lesion volume and subsequent terminal deoxynucleotidyl transferase dUTP nick end labeling (TUNEL) staining to evaluate apoptosis in and around brain lesions. TUNEL staining was conducted on the same tissue used for assessment of lesion volume in Example 2. Brain slices were post-fixed in 4% formalin for later sectioning for subsequent staining for TUNEL positive neurons. DNA fragmentation was detected by a TUNEL method using a Dead END fluorescent kit (Promega, Madison, Wis.) according to the manufacturer's instruction. […] Within these boundaries, optical dissectors were systematically randomly sampled and the number of positive cells, together with DAPI labeled nuclear counter-stain in each optical section is counted. […] The data were expressed as the percentage of DAPI nuclear counter-stained cells.
# [2] = tested on: brain lesion (infarcted area) after middle cerebral artery occlusion; assay: TTC staining, brain lesion volume after transient middle cerebral artery occlusion; assay type: in vivo, rat; details: OVX female rats, 4 weeks diet (E2 1 week), 1 hour MCA occlusion, 24 hours reperfusion
# Procedure: Young adult (2 to 3 months old) female Charles River rats were ovariectomized (OVX) and fed one of 5 compositions for 4 weeks or treated with estradiol (E2) as a positive control for one week. The animal groups and respective compositions were: At the end of the 4 weeks of feeding (or 1 week of E2 treatment), the animals were subjected to a transient (1 hour) middle cerebral artery occlusion followed by reperfusion for 24 hours to mimic one of the main causes of neuron loss. […] Photographs were taken with a digital camera. The digital images of each brain section were used to calculate lesion volume for the infracted area of the brain.
smiles,measurement,setting,value
C[C@]12CC[C@@H]3c4ccc(O)cc4CC[C@H]3[C@@H]1CC[C@@H]2O [17β-Estradiol],TUNEL Staining Value (TUNEL-positive cells normalized to the total number of cells by DAPI stain),[1],37.69 percentage of DAPI nuclear counter-stained cells
same,Lesion Volume Value,[2],147.41
